The assay concerns HCV replicon, genotype-1a variant with glutamine 30 changed to glutamate in the NS5A protein. The assay is described as follows: microbe, parasite or virus in culture. The class given is cell-based, HCV genotype 1a. The conditions noted are these: HCV replicon genotype 1a Q30E (Q→E) variant; test compound titrated with an NS5A-targeting compound (BMS-790052 fixed at 200 nM); ranking of synergist activity. The method, boiled down:
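Synergy was assessed by combining several fixed amounts of an NS5A-targeting compound with a titration of the second compound of interest.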
Background: In antiviral work, replicon cells carry a viral genome segment that copies itself.

Molecules are shown by their SMILES.

Regarding `N#CCC(=O)N1CCC[C@H]1c1ncc(-c2ccc(-c3ccc(-c4cnc([C@@H]5CCCN5C(=O)CC#N)[nH]4)cc3)cc2)[nH]1` [Compound S-171], the “Fold-Synergistic 1a (Q30E)” value is less than 10 fold. With `CCC(C)CC(=O)N1CCC[C@H]1c1ncc(-c2ccc(-c3ccc(-c4cnc([C@@H]5CCCN5C(=O)CC(C)CC)[nH]4)cc3)cc2)[nH]1` (stereo partly drawn) [Compound S-172] the figure was more than 10 fold; with `COC(=O)CCC(=O)N1CCC[C@H]1c1ncc(-c2ccc(-c3ccc(-c4cnc([C@@H]5CCCN5C(=O)CCC(=O)OC)[nH]4)cc3)cc2)[nH]1` [Compound S-173], less than 10 fold. With `CC(C)CCC(=O)N1CCC[C@H]1c1ncc(-c2ccc(-c3ccc(-c4cnc([C@@H]5CCCN5C(=O)CCC(C)C)[nH]4)cc3)cc2)[nH]1` [Compound S-174] the figure was less than 10 fold; with `Cn1cccc1C(=O)N1CCC[C@H]1c1ncc(-c2ccc(-c3ccc(-c4cnc([C@@H]5CCCN5C(=O)c5cccn5C)[nH]4)cc3)cc2)[nH]1` [Compound S-175], less than 10 fold. `O=C(C1CCCCCC1)N1CCC[C@H]1c1ncc(-c2ccc(-c3ccc(-c4cnc([C@@H]5CCCN5C(=O)C5CCCCCC5)[nH]4)cc3)cc2)[nH]1` [Compound S-176]: the “Fold-Synergistic 1a (Q30E)” value is recorded as more than 10 fold. Take `CC(C)(C)C(=O)N1CCC[C@H]1c1ncc(-c2ccc(-c3ccc(-c4cnc([C@@H]5CCCN5C(=O)C(C)(C)C)[nH]4)cc3)cc2)[nH]1` [Compound S-177]: the “Fold-Synergistic 1a (Q30E)” value was less than 10 fold. Regarding `O=C(Cc1ccccc1F)N1CCC[C@H]1c1ncc(-c2ccc(-c3ccc(-c4cnc([C@@H]5CCCN5C(=O)Cc5ccccc5F)[nH]4)cc3)cc2)[nH]1` [Compound S-178], the “Fold-Synergistic 1a (Q30E)” value is less than 10 fold. Turning to `C#CCCC(=O)N1CCC[C@H]1c1ncc(-c2ccc(-c3ccc(-c4cnc([C@@H]5CCCN5C(=O)CCC#C)[nH]4)cc3)cc2)[nH]1` [Compound S-179], the “Fold-Synergistic 1a (Q30E)” value is reported as less than 10 fold. Consider `CCCCC(=O)N1CCC[C@H]1c1ncc(-c2ccc(-c3ccc(-c4cnc([C@@H]5CCCN5C(=O)CCCC)[nH]4)cc3)cc2)[nH]1` [Compound S-180], for which the “Fold-Synergistic 1a (Q30E)” value is less than 10 fold. With `CCCCCC(=O)N1CCC[C@H]1c1ncc(-c2ccc(-c3ccc(-c4cnc([C@@H]5CCCN5C(=O)CCCCC)[nH]4)cc3)cc2)[nH]1` [Compound S-181] the figure was more than 10 fold; with `O=C(c1cccs1)N1CCC[C@H]1c1ncc(-c2ccc(-c3ccc(-c4cnc([C@@H]5CCCN5C(=O)c5cccs5)[nH]4)cc3)cc2)[nH]1` [Compound S-182], less than 10 fold; with `O=C(c1ccsc1)N1CCC[C@H]1c1ncc(-c2ccc(-c3ccc(-c4cnc([C@@H]5CCCN5C(=O)c5ccsc5)[nH]4)cc3)cc2)[nH]1` [Compound S-183], less than 10 fold. As for `O=C(c1ccccn1)N1CCC[C@H]1c1ncc(-c2ccc(-c3ccc(-c4cnc([C@@H]5CCCN5C(=O)c5ccccn5)[nH]4)cc3)cc2)[nH]1` [Compound S-184], the “Fold-Synergistic 1a (Q30E)” value is listed as less than 10 fold.

On to `O=C(c1cccnc1)N1CCC[C@H]1c1ncc(-c2ccc(-c3ccc(-c4cnc([C@@H]5CCCN5C(=O)c5cccnc5)[nH]4)cc3)cc2)[nH]1` [Compound S-185], for which the “Fold-Synergistic 1a (Q30E)” value is listed as less than 10 fold.

As to `NC(=O)CCC(=O)N1CCC[C@H]1c1ncc(-c2ccc(-c3ccc(-c4cnc([C@@H]5CCCN5C(=O)CCC(N)=O)[nH]4)cc3)cc2)[nH]1` [Compound S-186], the “Fold-Synergistic 1a (Q30E)” value is less than 10 fold. With `O=C(c1ccnnc1)N1CCC[C@H]1c1ncc(-c2ccc(-c3ccc(-c4cnc([C@@H]5CCCN5C(=O)c5ccnnc5)[nH]4)cc3)cc2)[nH]1` [Compound S-187] the figure was less than 10 fold; with `Cc1ncccc1C(=O)N1CCC[C@H]1c1ncc(-c2ccc(-c3ccc(-c4cnc([C@@H]5CCCN5C(=O)c5cccnc5C)[nH]4)cc3)cc2)[nH]1` [Compound S-188], less than 10 fold; with `Cc1ccoc1C(=O)N1CCC[C@H]1c1ncc(-c2ccc(-c3ccc(-c4cnc([C@@H]5CCCN5C(=O)c5occc5C)[nH]4)cc3)cc2)[nH]1` [Compound S-189], more than 10 fold. The value for `CCCC(C)(C)C(=O)N1CCC[C@H]1c1ncc(-c2ccc(-c3ccc(-c4cnc([C@@H]5CCCN5C(=O)C(C)(C)CCC)[nH]4)cc3)cc2)[nH]1` [Compound S-190] was less than 10 fold; that for `Cc1cccc(C(=O)N2CCC[C@H]2c2ncc(-c3ccc(-c4ccc(-c5cnc([C@@H]6CCCN6C(=O)c6cccc(C)n6)[nH]5)cc4)cc3)[nH]2)n1` [Compound S-191] was less than 10 fold. The value for `COCCC(=O)N1CCC[C@H]1c1ncc(-c2ccc(-c3ccc(-c4cnc([C@@H]5CCCN5C(=O)CCOC)[nH]4)cc3)cc2)[nH]1` [Compound S-192] was less than 10 fold; that for `O=C(CC(F)(F)F)N1CCC[C@H]1c1ncc(-c2ccc(-c3ccc(-c4cnc([C@@H]5CCCN5C(=O)CC(F)(F)F)[nH]4)cc3)cc2)[nH]1` [Compound S-193] was less than 10 fold; that for `N#CC1(C(=O)N2CCC[C@H]2c2ncc(-c3ccc(-c4ccc(-c5cnc([C@@H]6CCCN6C(=O)C6(C#N)CC6)[nH]5)cc4)cc3)[nH]2)CC1` [Compound S-194] was less than 10 fold.

For `O=C(c1cncnc1)N1CCC[C@H]1c1ncc(-c2ccc(-c3ccc(-c4cnc([C@@H]5CCCN5C(=O)c5cncnc5)[nH]4)cc3)cc2)[nH]1` [Compound S-195], the “Fold-Synergistic 1a (Q30E)” value was less than 10 fold.

For `O=C(CCN1CCOCC1)N1CCC[C@H]1c1ncc(-c2ccc(-c3ccc(-c4cnc([C@@H]5CCCN5C(=O)CCN5CCOCC5)[nH]4)cc3)cc2)[nH]1` [Compound S-196], the “Fold-Synergistic 1a (Q30E)” value is less than 10 fold.

For the compound `CC(C)(C)CC(=O)N1CCC[C@H]1c1ncc(-c2ccc(-c3ccc(-c4cnc([C@@H]5CCCN5C(=O)CC(C)(C)C)[nH]4)cc3)cc2)[nH]1` [Compound S-197], the “Fold-Synergistic 1a (Q30E)” value was less than 10 fold.

Consider `COc1ccc2c(C(=O)N3CCC[C@H]3c3ncc(-c4ccc(-c5ccc(-c6cnc([C@@H]7CCCN7C(=O)c7nccc8cc(OC)ccc78)[nH]6)cc5)cc4)[nH]3)nccc2c1` [Compound S-198], for which the “Fold-Synergistic 1a (Q30E)” value is reported as more than 100 fold. With `COc1cnc(C(=O)N2CCC[C@H]2c2ncc(-c3ccc(-c4ccc(-c5cnc([C@@H]6CCCN6C(=O)c6ncc(OC)c7ccccc67)[nH]5)cc4)cc3)[nH]2)c2ccccc12` [Compound S-199] the figure was more than 100 fold; with `O=C(c1ncc(Cl)c2ccccc12)N1CCC[C@H]1c1ncc(-c2ccc(-c3ccc(-c4cnc([C@@H]5CCCN5C(=O)c5ncc(Cl)c6ccccc56)[nH]4)cc3)cc2)[nH]1` [Compound S-200], more than 100 fold; with `COc1cccc2c(C(=O)N3CCC[C@H]3c3ncc(-c4ccc(-c5ccc(-c6cnc([C@@H]7CCCN7C(=O)c7nccc8c(OC)cccc78)[nH]6)cc5)cc4)[nH]3)nccc12` [Compound S-201], more than 100 fold. The value for `O=C(c1nccc2ccccc12)N1CCC[C@H]1c1ncc(-c2ccc(-c3ccc(-c4cnc([C@@H]5CCCN5C(=O)c5nccc6ccccc56)[nH]4)cc3)cc2)[nH]1` [Compound S-202] was more than 100 fold; that for `O=C(c1cccc2cnccc12)N1CCC[C@H]1c1ncc(-c2ccc(-c3ccc(-c4cnc([C@@H]5CCCN5C(=O)c5cccc6cnccc56)[nH]4)cc3)cc2)[nH]1` [Compound S-203] was less than 10 fold. With `COc1ccc2c(C(=O)N3CCC[C@H]3c3ncc(-c4ccc(-c5ccc(-c6cnc([C@@H]7CCCN7C(=O)c7nc(Cl)cc8cc(OC)ccc78)[nH]6)cc5)cc4)[nH]3)nc(Cl)cc2c1` [Compound S-204] the figure was more than 100 fold. For `O=C(c1nccc2c(Cl)cccc12)N1CCC[C@H]1c1ncc(-c2ccc(-c3ccc(-c4cnc([C@@H]5CCCN5C(=O)c5nccc6c(Cl)cccc56)[nH]4)cc3)cc2)[nH]1` [Compound S-206], the “Fold-Synergistic 1a (Q30E)” value is more than 100 fold.

As to `CC(C)(C)[C@H](NC(=O)C1CC(=O)c2ccccc2C1)c1nc(-c2ccc(-c3ccc(-c4c[nH]c([C@@H](NC(=O)C5CC(=O)c6ccccc6C5)C(C)(C)C)n4)cc3)cc2)c[nH]1` (stereo partly drawn) [Compound S-256], the “Fold-Synergistic 1a (Q30E)” value is recorded as more than 100 fold.

Take `CC(C)(C)[C@H](NC(=O)C1CC(=O)c2ccccc21)c1nc(-c2ccc(-c3ccc(-c4c[nH]c([C@@H](NC(=O)C5CC(=O)c6ccccc65)C(C)(C)C)n4)cc3)cc2)c[nH]1` (stereo partly drawn) [Compound S-257]: the “Fold-Synergistic 1a (Q30E)” value is given as more than 10 fold. With `CCCC[C@@H](CC(=O)OC(C)(C)C)C(=O)N[C@H](c1nc(-c2ccc(-c3ccc(-c4c[nH]c([C@@H](NC(=O)[C@@H](CCCC)CC(=O)OC(C)(C)C)C(C)(C)C)n4)cc3)cc2)c[nH]1)C(C)(C)C` [Compound S-260] the figure was more than 100 fold. The value for `CC(C)(C)[C@H](NC(=O)C12CCC(CC1)C2)c1nc(-c2ccc(-c3ccc(-c4c[nH]c([C@@H](NC(=O)C56CCC(CC5)C6)C(C)(C)C)n4)cc3)cc2)c[nH]1` [Compound S-261] was more than 100 fold; that for `COc1ccccc1C1OC(=O)C[C@@H]1C(=O)N[C@H](c1nc(-c2ccc(-c3ccc(-c4c[nH]c([C@@H](NC(=O)[C@H]5CC(=O)OC5c5ccccc5OC)C(C)(C)C)n4)cc3)cc2)c[nH]1)C(C)(C)C` (stereo partly drawn) [Compound S-263] was more than 10 fold.

Turning to `CC(C)(C)OC(=O)N1CCC(C(=O)N[C@H](c2nc(-c3ccc(-c4ccc(-c5c[nH]c([C@@H](NC(=O)C6CCN(C(=O)OC(C)(C)C)CC6)C(C)(C)C)n5)cc4)cc3)c[nH]2)C(C)(C)C)CC1` [Compound S-264], the “Fold-Synergistic 1a (Q30E)” value is on record as more than 100 fold. With `CC(C)(C)[C@H](NC(=O)C1CC(=O)N(c2ccccc2O)C1)c1nc(-c2ccc(-c3ccc(-c4c[nH]c([C@@H](NC(=O)C5CC(=O)N(c6ccccc6O)C5)C(C)(C)C)n4)cc3)cc2)c[nH]1` (stereo partly drawn) [Compound S-265] the figure was more than 100 fold.

Values taken from patent US9326973B2, “Hepatitis C virus inhibitors” (priority 2012, dated 2016).
